One assay deals with RPS6KA1/RPS6KA2/RPS6KA3 (Homo sapiens, UniProt P51812+Q15349+Q15418). Nature of the assay: Inhibition of RSK1/2/3 in human HeLa cells lysate at 2 uM pre incubated for 15 mins followed by ATP acyl phosphate probe addition and measured after 10 mins by LC-MS/MS analysis relative to control. In kind it is subcellular. As to conditions: time 25.0 min.
For assay [1], the target named is Serine/threonine-protein kinase 38-like (Homo sapiens, UniProt Q9Y2H1). In words: Inhibition of NDR2 in human HeLa cells lysate at 2 uM pre incubated for 15 mins followed by ADP acyl phosphate probe addition and measured after 10 mins by LC-MS/MS analysis relative to control. In kind it is subcellular. As to conditions: time 25.0 min.
Assay [2] has as its target T1, Serine/threonine-protein kinase 4 (Homo sapiens) (UniProt Q13043).
T1 sequence (whole entry): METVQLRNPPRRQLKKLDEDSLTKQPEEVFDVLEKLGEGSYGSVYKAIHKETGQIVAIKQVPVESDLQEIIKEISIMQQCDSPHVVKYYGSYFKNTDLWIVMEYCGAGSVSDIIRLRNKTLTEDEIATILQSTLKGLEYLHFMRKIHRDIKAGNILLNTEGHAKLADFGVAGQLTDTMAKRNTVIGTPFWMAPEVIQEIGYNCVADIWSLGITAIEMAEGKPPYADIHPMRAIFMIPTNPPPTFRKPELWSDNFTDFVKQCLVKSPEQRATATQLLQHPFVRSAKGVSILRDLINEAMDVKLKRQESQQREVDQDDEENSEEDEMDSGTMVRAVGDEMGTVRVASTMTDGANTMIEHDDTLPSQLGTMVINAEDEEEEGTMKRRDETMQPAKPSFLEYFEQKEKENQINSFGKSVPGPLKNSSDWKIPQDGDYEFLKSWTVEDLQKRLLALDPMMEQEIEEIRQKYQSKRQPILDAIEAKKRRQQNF
Nature of the assay: Inhibition of MST1 in human HeLa cells lysate at 2 uM pre incubated for 15 mins followed by ATP acyl phosphate probe addition and measured after 10 mins by LC-MS/MS analysis relative to control. The assay is classed as subcellular. As to conditions: time 25.0 min.

For assay [3], the target named is STE20-like serine/threonine-protein kinase (Homo sapiens, UniProt Q9H2G2). Nature of the assay: Inhibition of SLK in human HeLa cells lysate pre incubated for 15 mins followed by ATP acyl phosphate probe addition and measured after 10 mins by LC-MS/MS analysis. The assay is classed as subcellular.
Assay [4] has as its target Epidermal growth factor receptor (Homo sapiens, UniProt P00533). Nature of the assay: Inhibition of EGFR in human HeLa cells lysate at 10 uM pre incubated for 15 mins followed by ADP acyl phosphate probe addition and measured after 10 mins by LC-MS/MS analysis relative to control. In kind it is subcellular. As to conditions: time 25.0 min.
The target of assay [5] is Phosphatidylinositol 4-phosphate 3-kinase C2 domain-containing subunit beta (Homo sapiens, UniProt O00750). Nature of the assay: Inhibition of PIK3C2B in human HeLa cells lysate at 10 uM pre incubated for 15 mins followed by ATP acyl phosphate probe addition and measured after 10 mins by LC-MS/MS analysis relative to control. In kind it is subcellular. As to conditions: time 25.0 min.

For assay [6], the target named is T2, Glycogen synthase kinase-3 beta (Homo sapiens, UniProt P49841). Nature of the assay: Inhibition of GSK3B isoform 2 in human HeLa cells lysate at 2 uM pre incubated for 15 mins followed by ADP acyl phosphate probe addition and measured after 10 mins by LC-MS/MS analysis relative to control. The assay is classed as subcellular. As to conditions: time 25.0 min.

Assay [7] is described as follows: Inhibition of SRPK1/2 in human HeLa cells lysate at 2 uM pre incubated for 15 mins followed by ADP acyl phosphate probe addition and measured after 10 mins by LC-MS/MS analysis relative to control. As to conditions: 25 min, condition cancer.
The target in assay [8] is Phosphorylase b kinase gamma catalytic chain, liver/testis isoform (Homo sapiens, UniProt P15735). Nature of the assay: Inhibition of PHKg2 in human HeLa cells lysate pre incubated for 15 mins followed by ATP acyl phosphate probe addition and measured after 10 mins by LC-MS/MS analysis. The assay is classed as subcellular.
A further assay addresses Insulin receptor (Homo sapiens, UniProt P06213). In words: Inhibition of INSR in human HeLa cells lysate at 10 uM pre incubated for 15 mins followed by ADP acyl phosphate probe addition and measured after 10 mins by LC-MS/MS analysis relative to control. The assay is classed as subcellular. As to conditions: time 25.0 min.
Assay [9] concerns the target Ribosomal protein S6 kinase alpha-1 (Homo sapiens, UniProt Q15418). Nature of the assay: Inhibition of RSK1 domain 2 K1 site in human HeLa cells lysate pre incubated for 15 mins followed by ADP acyl phosphate probe addition and measured after 10 mins by LC-MS/MS analysis. In kind it is subcellular.
For assay [10], the target named is T2, Glycogen synthase kinase-3 beta. In words: Inhibition of GSK3B isoform 2 in human HeLa cells lysate at 2 uM pre incubated for 15 mins followed by ATP acyl phosphate probe addition and measured after 10 mins by LC-MS/MS analysis relative to control. In kind it is subcellular. As to conditions: time 25.0 min.
The target in assay [11] is Protein kinase C iota type (Homo sapiens, UniProt P41743). Nature of the assay: Inhibition of PKCiota in human HeLa cells lysate pre incubated for 15 mins followed by ADP acyl phosphate probe addition and measured after 10 mins by LC-MS/MS analysis. In kind it is subcellular.
Assay [12] deals with Ribosomal protein S6 kinase alpha-3 (Homo sapiens, UniProt P51812). Nature of the assay: Inhibition of RSK2 domain 1 in human HeLa cells lysate pre incubated for 15 mins followed by ADP acyl phosphate probe addition and measured after 10 mins by LC-MS/MS analysis. In kind it is subcellular.
In assay [13] the target is Dual specificity mitogen-activated protein kinase kinase 4 (Homo sapiens, UniProt P45985). In words: Inhibition of MAP2K4 in human HeLa cells lysate pre incubated for 15 mins followed by ADP acyl phosphate probe addition and measured after 10 mins by LC-MS/MS analysis. The assay is classed as subcellular.
The target in assay [14] is Cyclin-dependent kinase 11B (Homo sapiens, UniProt P21127). Nature of the assay: Inhibition of PITSLRE in human HeLa cells lysate at 10 uM pre incubated for 15 mins followed by ATP acyl phosphate probe addition and measured after 10 mins by LC-MS/MS analysis relative to control. As to conditions: time 25.0 min. The assay is classed as subcellular.
The target in assay [15] is Protein kinase C theta type (Homo sapiens, UniProt Q04759). Nature of the assay: Inhibition of PKCtheta in human HeLa cells lysate at 10 uM pre incubated for 15 mins followed by ATP acyl phosphate probe addition and measured after 10 mins by LC-MS/MS analysis relative to control. As to conditions: time 25.0 min. The assay is classed as subcellular.
The target in assay [16] is Serine/threonine-protein kinase WNK1 (Homo sapiens, UniProt Q9H4A3). In words: Inhibition of Wnk1 in human HeLa cells lysate at 10 uM pre incubated for 15 mins followed by ATP acyl phosphate probe addition and measured after 10 mins by LC-MS/MS analysis relative to control. In kind it is subcellular. As to conditions: time 25.0 min.
Another assay has as its target Focal adhesion kinase 1 (Homo sapiens, UniProt Q05397). Nature of the assay: Inhibition of FAK in human HeLa cells lysate pre incubated for 15 mins followed by ADP acyl phosphate probe addition and measured after 10 mins by LC-MS/MS analysis. In kind it is subcellular.
The target of assay [17] is Cyclin-dependent kinase 12 (Homo sapiens, UniProt Q9NYV4). In words: Inhibition of CRK7 in human HeLa cells lysate at 2 uM pre incubated for 15 mins followed by ADP acyl phosphate probe addition and measured after 10 mins by LC-MS/MS analysis relative to control. The assay is classed as subcellular. As to conditions: time 25.0 min.
The target of assay [18] is Serine/threonine-protein kinase LATS1 (Homo sapiens) (UniProt O95835). In words: Inhibition of LATS1 in human HeLa cells lysate at 2 uM pre incubated for 15 mins followed by ATP acyl phosphate probe addition and measured after 10 mins by LC-MS/MS analysis relative to control. The assay is classed as subcellular. As to conditions: time 25.0 min.

T2 sequence (P49841 whole entry, looked up, canonical isoform): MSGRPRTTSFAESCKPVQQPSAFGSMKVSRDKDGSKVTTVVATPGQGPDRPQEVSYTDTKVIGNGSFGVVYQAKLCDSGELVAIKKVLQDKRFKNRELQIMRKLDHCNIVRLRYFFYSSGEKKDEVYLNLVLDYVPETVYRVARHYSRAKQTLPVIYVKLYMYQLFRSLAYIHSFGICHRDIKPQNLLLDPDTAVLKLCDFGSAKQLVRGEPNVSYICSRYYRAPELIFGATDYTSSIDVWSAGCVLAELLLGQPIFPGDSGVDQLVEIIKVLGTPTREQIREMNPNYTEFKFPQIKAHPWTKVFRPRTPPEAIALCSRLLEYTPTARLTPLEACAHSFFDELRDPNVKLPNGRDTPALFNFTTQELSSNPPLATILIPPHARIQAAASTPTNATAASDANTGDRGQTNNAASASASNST
Chain of Cyclin-dependent kinase 11B (P21127 whole entry): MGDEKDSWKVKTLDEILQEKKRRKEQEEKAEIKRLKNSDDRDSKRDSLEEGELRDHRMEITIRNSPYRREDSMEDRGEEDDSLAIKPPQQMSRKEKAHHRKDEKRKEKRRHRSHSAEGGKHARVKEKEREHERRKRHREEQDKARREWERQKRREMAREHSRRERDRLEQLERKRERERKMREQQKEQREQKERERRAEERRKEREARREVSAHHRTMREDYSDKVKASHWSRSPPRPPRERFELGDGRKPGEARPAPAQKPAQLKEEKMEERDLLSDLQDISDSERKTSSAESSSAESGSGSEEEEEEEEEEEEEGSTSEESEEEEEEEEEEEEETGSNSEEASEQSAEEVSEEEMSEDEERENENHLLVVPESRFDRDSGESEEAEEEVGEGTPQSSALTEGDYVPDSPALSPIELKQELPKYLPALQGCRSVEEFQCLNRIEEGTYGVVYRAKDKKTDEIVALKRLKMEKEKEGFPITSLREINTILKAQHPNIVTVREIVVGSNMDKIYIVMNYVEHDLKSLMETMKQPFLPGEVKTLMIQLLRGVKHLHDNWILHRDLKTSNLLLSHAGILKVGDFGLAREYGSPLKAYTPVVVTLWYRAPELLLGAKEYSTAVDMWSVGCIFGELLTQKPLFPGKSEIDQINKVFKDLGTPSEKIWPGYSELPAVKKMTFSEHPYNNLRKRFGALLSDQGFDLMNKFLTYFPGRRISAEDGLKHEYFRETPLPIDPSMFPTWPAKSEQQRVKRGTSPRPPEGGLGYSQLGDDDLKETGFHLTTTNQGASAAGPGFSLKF
Chain of RPS6KA1/RPS6KA2/RPS6KA3 (P51812 whole entry, looked up): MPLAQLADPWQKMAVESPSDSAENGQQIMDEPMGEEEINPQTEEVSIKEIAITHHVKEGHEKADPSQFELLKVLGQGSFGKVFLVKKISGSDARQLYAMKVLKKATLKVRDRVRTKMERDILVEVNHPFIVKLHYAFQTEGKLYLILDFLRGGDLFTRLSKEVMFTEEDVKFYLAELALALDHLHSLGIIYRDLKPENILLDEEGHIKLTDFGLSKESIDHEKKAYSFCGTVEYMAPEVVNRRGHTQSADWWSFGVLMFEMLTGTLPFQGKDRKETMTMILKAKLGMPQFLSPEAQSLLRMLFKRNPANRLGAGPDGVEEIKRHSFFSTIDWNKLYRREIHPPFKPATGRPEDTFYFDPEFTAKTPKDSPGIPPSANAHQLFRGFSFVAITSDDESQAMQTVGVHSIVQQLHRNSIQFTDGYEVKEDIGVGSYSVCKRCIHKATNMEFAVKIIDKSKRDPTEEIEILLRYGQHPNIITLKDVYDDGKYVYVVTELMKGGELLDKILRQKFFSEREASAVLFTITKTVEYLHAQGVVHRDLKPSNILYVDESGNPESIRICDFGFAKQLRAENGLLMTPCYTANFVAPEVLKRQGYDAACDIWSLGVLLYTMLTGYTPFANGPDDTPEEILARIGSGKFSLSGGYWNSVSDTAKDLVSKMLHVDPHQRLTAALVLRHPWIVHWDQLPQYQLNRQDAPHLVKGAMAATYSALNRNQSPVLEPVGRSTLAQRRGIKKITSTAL
Chain of RPS6KA1/RPS6KA2/RPS6KA3 (Q15349 whole entry, looked up): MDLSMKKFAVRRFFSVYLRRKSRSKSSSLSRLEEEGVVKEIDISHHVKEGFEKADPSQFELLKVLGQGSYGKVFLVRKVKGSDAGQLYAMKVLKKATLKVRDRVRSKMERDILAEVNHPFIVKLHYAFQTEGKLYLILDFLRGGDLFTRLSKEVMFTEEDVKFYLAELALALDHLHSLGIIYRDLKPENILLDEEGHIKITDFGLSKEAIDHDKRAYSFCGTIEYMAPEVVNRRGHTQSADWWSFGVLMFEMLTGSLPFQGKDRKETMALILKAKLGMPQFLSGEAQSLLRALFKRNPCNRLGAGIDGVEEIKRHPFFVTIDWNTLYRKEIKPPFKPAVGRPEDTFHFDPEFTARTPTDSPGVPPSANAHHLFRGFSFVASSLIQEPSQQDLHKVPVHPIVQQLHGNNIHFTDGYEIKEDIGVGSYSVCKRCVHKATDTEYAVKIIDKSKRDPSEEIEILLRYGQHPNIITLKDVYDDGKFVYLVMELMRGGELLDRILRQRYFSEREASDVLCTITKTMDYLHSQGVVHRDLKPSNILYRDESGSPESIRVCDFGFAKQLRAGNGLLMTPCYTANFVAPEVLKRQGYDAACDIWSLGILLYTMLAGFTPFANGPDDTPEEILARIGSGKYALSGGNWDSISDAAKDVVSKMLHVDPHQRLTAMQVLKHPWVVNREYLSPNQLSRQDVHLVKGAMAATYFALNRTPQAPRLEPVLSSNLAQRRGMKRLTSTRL
Chain of RPS6KA1/RPS6KA2/RPS6KA3 (Q15418 whole entry, looked up): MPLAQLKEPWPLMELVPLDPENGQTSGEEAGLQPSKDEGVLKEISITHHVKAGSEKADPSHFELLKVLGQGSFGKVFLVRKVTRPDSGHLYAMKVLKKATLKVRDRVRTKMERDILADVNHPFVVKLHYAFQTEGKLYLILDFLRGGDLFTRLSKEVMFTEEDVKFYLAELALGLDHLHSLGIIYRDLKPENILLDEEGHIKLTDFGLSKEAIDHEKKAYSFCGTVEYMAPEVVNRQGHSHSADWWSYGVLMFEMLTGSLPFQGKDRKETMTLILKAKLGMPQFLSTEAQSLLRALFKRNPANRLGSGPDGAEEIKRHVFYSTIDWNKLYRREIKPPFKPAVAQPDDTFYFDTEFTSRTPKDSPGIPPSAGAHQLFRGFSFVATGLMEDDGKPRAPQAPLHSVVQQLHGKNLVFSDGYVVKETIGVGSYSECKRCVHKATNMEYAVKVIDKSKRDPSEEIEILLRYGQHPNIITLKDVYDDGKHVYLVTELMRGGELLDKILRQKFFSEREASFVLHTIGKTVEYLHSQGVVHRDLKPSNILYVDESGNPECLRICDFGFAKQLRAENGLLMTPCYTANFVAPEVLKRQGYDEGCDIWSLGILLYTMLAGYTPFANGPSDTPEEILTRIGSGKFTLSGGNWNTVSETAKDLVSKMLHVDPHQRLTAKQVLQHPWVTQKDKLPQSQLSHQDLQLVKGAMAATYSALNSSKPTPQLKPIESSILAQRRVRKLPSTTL
Chain of Ribosomal protein S6 kinase alpha-3 (P51812 whole entry, the tested form may be a part): as the sequence (P51812 whole entry, looked up) above
Chain of Epidermal growth factor receptor (P00533 whole entry, the tested form may be a part): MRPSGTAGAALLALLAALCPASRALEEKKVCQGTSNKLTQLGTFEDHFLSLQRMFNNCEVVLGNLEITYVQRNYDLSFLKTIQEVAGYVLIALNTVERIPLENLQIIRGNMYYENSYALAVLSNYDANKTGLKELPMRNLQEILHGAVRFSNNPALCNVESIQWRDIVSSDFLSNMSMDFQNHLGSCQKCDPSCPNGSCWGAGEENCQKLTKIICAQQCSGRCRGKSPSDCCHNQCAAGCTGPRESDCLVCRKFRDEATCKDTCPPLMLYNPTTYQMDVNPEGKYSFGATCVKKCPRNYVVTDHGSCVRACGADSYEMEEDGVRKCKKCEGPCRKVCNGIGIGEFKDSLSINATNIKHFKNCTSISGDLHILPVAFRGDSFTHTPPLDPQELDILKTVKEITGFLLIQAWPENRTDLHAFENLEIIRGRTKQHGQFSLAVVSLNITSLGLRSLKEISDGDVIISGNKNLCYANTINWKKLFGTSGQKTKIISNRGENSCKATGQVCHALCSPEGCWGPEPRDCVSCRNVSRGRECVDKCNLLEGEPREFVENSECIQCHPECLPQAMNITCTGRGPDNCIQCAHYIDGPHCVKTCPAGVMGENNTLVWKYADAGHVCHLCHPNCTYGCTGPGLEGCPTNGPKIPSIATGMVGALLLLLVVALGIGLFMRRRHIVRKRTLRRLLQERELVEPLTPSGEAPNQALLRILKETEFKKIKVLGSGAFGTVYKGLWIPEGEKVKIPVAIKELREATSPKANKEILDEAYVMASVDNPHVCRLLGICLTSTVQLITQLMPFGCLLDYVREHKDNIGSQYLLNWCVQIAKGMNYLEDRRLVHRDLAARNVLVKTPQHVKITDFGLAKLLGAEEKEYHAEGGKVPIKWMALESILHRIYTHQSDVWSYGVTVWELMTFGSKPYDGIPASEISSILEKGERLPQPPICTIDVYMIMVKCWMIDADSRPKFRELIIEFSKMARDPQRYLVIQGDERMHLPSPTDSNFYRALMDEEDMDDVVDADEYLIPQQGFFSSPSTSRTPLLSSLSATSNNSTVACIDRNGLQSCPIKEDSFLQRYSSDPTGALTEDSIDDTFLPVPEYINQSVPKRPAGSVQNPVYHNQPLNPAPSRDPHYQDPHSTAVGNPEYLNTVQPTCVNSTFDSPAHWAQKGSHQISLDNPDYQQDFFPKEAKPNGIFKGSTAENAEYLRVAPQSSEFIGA
Chain of Ribosomal protein S6 kinase alpha-1 (Q15418 whole entry, the tested form may be a part, canonical isoform): as the sequence (Q15418 whole entry, looked up) above

A word on the inhibition: it is the relative decrease from the control value, in per cent. The IC50 is the midpoint of a concentration-inhibition curve. A high value points to a need for much substance. For the compound `CCOc1cc(N2CCC(O)CC2)ccc1Nc1ncc2c(n1)N(C)c1ccccc1C(=O)N2C`, the inhibition at RPS6KA1/RPS6KA2/RPS6KA3 came to 11.6%; in assay [1], 11.7%; in [2], 2.2%; in assay [4], 9.9%; in [5], 6.5%; in assay [6] it was 18.5%. Moreover, the inhibition against Insulin receptor was -8%; in assay [10], 7.8%; in [14], 0.3%; in [15] it was 12.4%; in assay [16], 6.9%; in [17] it was 5.4%. In addition, in assay [18], the inhibition amounted to 5.7%. For the same compound, the IC50 in [3] was greater than 50 µM; in assay [8], greater than 50 µM; in [9] it was 29 µM; in [11], greater than 50 µM; in [12], greater than 50 µM; in assay [13], greater than 50 µM. Moreover, half-maximal inhibition on Focal adhesion kinase 1 (IC50) required 39 µM. For the same compound, the inhibition at 2 µM in assay [7] is 12.7%.

The record behind these values is ChEMBL document CHEMBL5661979, “Pharmacological inhibition of BMK1 suppresses tumor growth through promyelocytic leukemia protein” (Cancer Cell, 2010).
